# Data published in patent US20170165286A1, “COMPOSITIONS AND METHODS FOR TREATING DIABETES AND LIVER DISEASES” (Cempra Pharmaceuticals, Inc., priority 2014, published 2017).
# “Also recorded” adds a separate entry of the source.
# Tested on: STAM mice
# Assay: STAM model: serum biochemistry (HPLC)
# Assay type: in vivo
# Method: NASH-HCC (STAM™) Model. C57BL/6 (15-day-pregnant female) mice are obtained from Charles River Laboratories Japan (Kanagawa, Japan). Male pups are selected for the study. NASH is induced in male mice by a single subcutaneous injection of 200 μg streptozotocin (STZ, Sigma-Aldrich, USA) solution 2 days after birth, followed by feeding a HFD (57 kcal % fat, cat#: HFD32, CLEA Japan, Japan) beginning at 4 weeks of age. At 5 weeks of age, mice are divided into a control group and one or more treated group (generally 8 mice per group). Animals are sacrificed at 9 weeks of age, and biochemical, histological, and gene expression analyses are performed.
# During weeks 5-9 (starting at day 35±2), test compound is administered (generally orally) at various doses diluted to 10 mL/kg and according to various dosing protocols to treatment groups (8 mice each) while a second group (8 mice) is administered vehicle only. Animals are sacrificed at 9 weeks.
# Measurement of serum biochemistry. For serum biochemistry, blood is collected in polypropylene tubes without anticoagulant and incubated at room temperature for 30 minutes, at 4° C. for 1 hour, and then centrifuged at 1,000×g for 15 minutes at 4° C. The supernatant is collected and stored at −80° C. until use. Serum triglyceride, HDL-cholesterol, LDL-cholesterol, VLDL-cholesterol, and chylomicron ([…]) are quantified by HPLC at Skylight Biotech Inc. (Japan).
# Illustrative dose response test groups. Group 1-Normal. Eight normal mice are fed with a normal diet ad libitum without any treatment until 9 weeks of age. Group 2-Vehicle. Eight NASH mice are orally administered vehicle (0.5% w/v methylcellulose+0.2% Tween®80) in a volume of 10 mL/kg twice daily from 5 to 9 week of age. Group 3-solithromycin 5 mg/kg. Eight NASH mice are orally administered vehicle supplemented with solithromycin at a dose of 5 mg/kg in the morning and the vehicle in the evening (5 mg/kg/day) from 5 to 9 weeks of age. Group 4-solithromycin 10 mg/kg. Eight NASH mice are orally administered vehicle supplemented with solithromycin at a dose of 10 mg/kg twice daily (20 mg/kg/day) from 5 to 9 weeks of age. Group 5-solithromycin 25 mg/kg. Eight NASH mice are orally administered vehicle supplemented with solithromycin at a dose of 25 mg/kg twice daily (50 mg/kg/day) from 5 to 9 weeks of age. Group 6-solithromycin 50 mg/kg. Eight NASH mice are orally administered vehicle supplemented with solithromycin at a dose of 50 mg/kg once daily (50 mg/kg/day) from 5 to 9 weeks of age.
# [1] = 5 mg/kg q.d., listed as SOLI, 5 mg/kg
# [2] = 10 mg/kg b.i.d., listed as SOLI, 10 mg/kg
# [3] = 25 mg/kg b.i.d., listed as SOLI, 25 mg/kg
smiles,measurement,setting,value
CC[C@H]1OC(=O)[C@@](C)(F)C(=O)[C@H](C)[C@@H](O[C@@H]2O[C@H](C)C[C@H](N(C)C)[C@H]2O)[C@](C)(OC)C[C@@H](C)C(=O)[C@H](C)[C@H]2N(CCCCn3cc(-c4cccc(N)c4)nn3)C(=O)O[C@]12C [solithromycin],Serum HDL-cholesterol,"5 mg/kg q.d., 5 mg/kg",no statistically significant differences
same,Serum VLDL-cholesterol,"5 mg/kg q.d., 5 mg/kg",no statistically significant differences
same,Serum chylomicron,"5 mg/kg q.d., 5 mg/kg",no statistically significant differences
same,Serum triglyceride,"5 mg/kg q.d., 5 mg/kg",no statistically significant differences
same,Serum HDL-cholesterol,[1],88.4 ± 14.2 mg/dL
same,Serum VLDL-cholesterol,[1],9.8 ± 5.3 mg/dL
same,Serum chylomicron,[1],1.5 ± 1.2 mg/dL
same,Serum triglyceride,[1],133.8 ± 110.1 mg/dL
same,Serum HDL-cholesterol,"10 mg/kg b.i.d., 10 mg/kg",no statistically significant differences
same,Serum VLDL-cholesterol,"10 mg/kg b.i.d., 10 mg/kg",no statistically significant differences
same,Serum chylomicron,"10 mg/kg b.i.d., 10 mg/kg",no statistically significant differences
same,Serum triglyceride,"10 mg/kg b.i.d., 10 mg/kg",no statistically significant differences
same,Serum HDL-cholesterol,[2],89.3 ± 21.5 mg/dL
same,Serum VLDL-cholesterol,[2],9.7 ± 3.8 mg/dL
same,Serum chylomicron,[2],1.4 ± 0.6 mg/dL
same,Serum triglyceride,[2],116.5 ± 58.8 mg/dL
same,Serum HDL-cholesterol,"25 mg/kg b.i.d., 25 mg/kg",no statistically significant differences
same,Serum VLDL-cholesterol,"25 mg/kg b.i.d., 25 mg/kg",significantly decreased; also recorded: Statistically significant reduced
same,Serum chylomicron,"25 mg/kg b.i.d., 25 mg/kg",significantly decreased
same,Serum triglyceride,"25 mg/kg b.i.d., 25 mg/kg",significantly decreased; also recorded: Statistically significant reduced
same,Serum HDL-cholesterol,[3],97.9 ± 26.3 mg/dL
same,Serum VLDL-cholesterol,[3],5.4 ± 3.2 mg/dL
same,Serum chylomicron,[3],0.7 ± 0.4 mg/dL
same,Serum triglyceride,[3],46.8 ± 47.8 mg/dL
